Data reported in PubChem BioAssay (NCI).
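Protocol summary: plate cells (96-well), add compound at 5 concentrations, incubate 48 h, interpolate endpoints linearly. GI50 marks 50% less growth. TGI is the concentration that stops growth completely.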

Experiments:
Test in all cases: NCI-60 cell line screen, 48 h
HT29 colon = tested on: HT29 colon
KM12 colon = tested on: KM12 colon
IGROV1 ovarian = tested on: IGROV1 ovarian
T-47D breast = tested on: T-47D breast
EKVX NSCLC = tested on: EKVX NSCLC
UO-31 renal = tested on: UO-31 renal
A498 renal = tested on: A498 renal
ACHN renal = tested on: ACHN renal
SR leukemia = tested on: SR leukemia
MOLT-4 leukemia = tested on: MOLT-4 leukemia

| Compound | TGI (HT29 colon) | TGI (KM12 colon) | TGI (IGROV1 ovarian) | TGI (T-47D breast) | TGI (EKVX NSCLC) | TGI (UO-31 renal) | TGI (A498 renal) | TGI (ACHN renal) | TGI (SR leukemia) | TGI (MOLT-4 leukemia) | GI50 (HT29 colon) | GI50 (KM12 colon) | GI50 (IGROV1 ovarian) | GI50 (T-47D breast) | GI50 (UO-31 renal) | GI50 (SR leukemia) | GI50 (A498 renal) | GI50 (MOLT-4 leukemia) | GI50 (ACHN renal) | GI50 (EKVX NSCLC) |
| --- | --- | --- | --- | --- | --- | --- | --- | --- | --- | --- | --- | --- | --- | --- | --- | --- | --- | --- | --- | --- |
| COC1CC2CCC(C)[C@](O)(O2)C(=O)C(=O)N2CCCCC2C(=O)OC(C(C)CC2CCC(O)C(OC)C2)CC(=O)C(C)C=C(C)C(OC(=O)CN(C)C)C(OC)C(=O)C(C)CC(C)/C=C/C=C/C=C\1C (some centres undefined) | 20.2 µM | 23.1 µM | 9.88 µM | 25 µM | 20.3 µM | 5.27 µM | 11.9 µM | 19.6 µM |  |  |  |  |  |  |  |  |  |  |  |  |
| COC(=O)C1C(=O)O[C@@H](c2ccc(OC)cc2OC)C1C(=O)OC (some centres undefined) | > 100 µM | > 100 µM | > 100 µM |  | > 100 µM | > 100 µM | > 100 µM | > 100 µM | > 100 µM | > 100 µM |  |  |  |  |  |  |  |  |  |  |
| O=C(CC(=O)C(F)(F)F)c1csc2ccccc12 |  | > 100 µM | > 100 µM |  | > 100 µM | > 100 µM |  | > 100 µM | 50.1 µM | 72.3 µM |  |  |  |  |  |  |  |  |  |  |
| CC(C)(O)[C@H]1[C@@H]2OC(=O)[C@H]1[C@]1(O)C[C@H]3OC34C(=O)O[C@H]2[C@@]41C (some centres undefined) (tested in a mixture with another compound) | > 100 µM | > 100 µM | > 100 µM | > 100 µM | > 100 µM | > 100 µM | > 100 µM | > 100 µM |  | > 100 µM |  |  |  |  |  |  |  |  |  |  |
| CNC1C(O)CC(OC2C/C=C(\C)C/C(C)=C/C=C/CCC(C)CNC(=O)/C=C/C=C/C2C)OC1C (centres undefined) | 0.504 µM | 1.02 µM | 2.58 µM | 3.18 µM | 3 µM | 5.85 µM | 3.24 µM | 2.85 µM |  |  |  |  |  |  |  |  |  |  |  |  |
| CSC(=S)NNC(=O)c1ccncc1 | 37.8 µM | > 100 µM | 32.7 µM |  | 57.6 µM | 31.6 µM | > 100 µM | 36.2 µM | 47.3 µM | 55.6 µM |  |  |  |  |  |  |  |  |  |  |
| Cc1cc(C)n(-c2c(O)ccc(O)c2-n2nc(C)cc2C)n1 | > 100 µM | > 100 µM | > 100 µM |  | > 100 µM | > 100 µM | > 100 µM | > 100 µM |  | > 100 µM |  |  |  |  |  |  |  |  |  |  |
| Cn1cc(C2=C(c3c4n(c5ccccc35)CCC(CN)CC4)C(=O)NC2=O)c2ccccc21 (centres undefined) | 9.29 µM | 7.39 µM | 8.75 µM | 9.87 µM |  | 7.91 µM | 7.55 µM | 8.67 µM | 16.2 µM | 13.3 µM | 2.88 µM | 3.88 µM | 3.98 µM | 4.52 µM | 4.07 µM | 5.14 µM | 3.96 µM | 5.27 µM | 4.43 µM |  |
| CC1OC(O)CC(OC(=O)c2ccccc2)C1OC(=O)c1ccccc1 (centres undefined) | 42.2 µM | > 100 µM | > 100 µM |  |  |  | > 100 µM | > 100 µM | 37.1 µM | 39 µM |  |  |  |  |  |  |  |  |  |  |
| CCC(=C(c1ccc(OCc2ccccc2)cc1)c1ccc(OCc2ccccc2)cc1)c1ccc(OC)cc1 | > 100 µM | > 100 µM | > 100 µM |  | > 100 µM | > 100 µM |  | > 100 µM | > 100 µM | > 100 µM |  |  |  |  |  |  |  |  |  |  |
| COC(=O)C1=CC2OC1(C)C1(CC1)C2=O (centres undefined) | 25.5 µM | 43.9 µM | 35.9 µM |  | 29 µM | 50 µM |  | 34.4 µM | 34.6 µM | 27.2 µM |  |  |  |  |  |  |  |  |  |  |
| CC(=O)Nc1ccc(/C=C/C(=O)c2sc(C(N)=S)nc2C)cc1 | > 100 µM | > 100 µM | > 100 µM |  | > 100 µM | > 100 µM | > 100 µM |  |  | > 100 µM |  |  |  |  |  |  |  |  |  |  |
| COc1ccc(-c2nc(-c3nc4cc(C)c(C)cc4[nH]3)cc3c2[nH]c2ccccc23)cc1 | > 100 µM | 24.9 µM | > 100 µM | 7.92 µM |  | 52.5 µM | 42.4 µM | 27.9 µM | 7.17 µM | 6.46 µM | 3.76 µM | 3.5 µM | 9.99 µM | 3.09 µM | 2.53 µM | 2.33 µM | 14.4 µM | 2.37 µM | 2.6 µM |  |
| Cc1ccc(C2=NO[C@@H]3C(=O)N(c4ccc(Cc5ccc(N6C(=O)[C@H]7C(c8ccc(C)cc8)=NO[C@H]7C6=O)cc5)cc4)C(=O)[C@H]23)cc1 | > 100 µM | > 100 µM | > 100 µM |  | > 100 µM | > 100 µM | > 100 µM | > 100 µM |  |  |  |  |  |  |  |  |  |  |  |  |
| O=C(C=Nc1ccccc1C(=O)[O-])c1cccs1.O=C(C=Nc1ccccc1C(=O)[O-])c1cccs1.[Cu+2] | > 100 µM | > 100 µM | > 100 µM |  |  | > 100 µM | > 100 µM | > 100 µM | > 100 µM | > 100 µM |  |  |  |  |  |  |  |  |  |  |
| CC[C@H](C)C(=O)O[C@H]1CCC=C2C=C[C@H](C)C(CCC3C[C@@H](O)CC(=O)O3)[C@H]21 (some centres undefined) | > 100 µM | > 100 µM |  | > 100 µM | > 100 µM |  | 2.42 µM | > 100 µM |  | > 100 µM | 29 µM | 45.6 µM |  |  |  |  | 0.0183 µM |  | 1.7 µM | 12.5 µM |
| CC1C2=CC=C(O2)C(C)(C)C2=CC=C(O2)C(C)(C)C2=CC=C(O2)C(C)(C)C2=CC=C1O2 | > 100 µM | > 100 µM | > 100 µM |  | > 100 µM |  | > 100 µM | > 100 µM | > 100 µM | > 100 µM |  |  |  |  |  |  |  |  |  |  |
| CCCCCCCCCC(=O)OCC1OC(n2cc(F)c(=O)[nH]c2=O)C(N)C(OC(=O)CCCCCCCCC)C1O (centres undefined) | 35.8 µM | 41.2 µM | > 100 µM |  | 34.1 µM | 54.9 µM | 31.6 µM | > 100 µM | 45.3 µM | 32.7 µM |  |  |  |  |  |  |  |  |  |  |
| Nc1nc(N)c(-c2ccc(Cl)cc2)c(CCC(=O)Nc2cccc(C(F)(F)F)c2)n1 | > 100 µM | > 100 µM | > 100 µM |  | > 100 µM | > 100 µM | > 100 µM | > 100 µM | > 100 µM | > 100 µM |  |  |  |  |  |  |  |  |  |  |
| CN(C)CC1CCn2c(c(C3=C(c4cn(C)c5ccccc45)C(=O)NC3=O)c3ccccc32)C1 (centres undefined) | 7.83 µM | 8.26 µM | 10.1 µM | 10.7 µM |  | 5.96 µM | 9.22 µM | 7.9 µM | 12.7 µM | 13.9 µM | 3.16 µM | 4.14 µM | 5.22 µM | 5.1 µM | 2.69 µM | 4.26 µM | 4.47 µM | 4.74 µM | 3.88 µM |  |
| Cc1ccc2[nH]c(=O)c(C(C#N)c3ccccc3)nc2c1 (centres undefined) | > 100 µM | > 100 µM | > 100 µM |  | 84 µM | 69.9 µM | > 100 µM | > 100 µM | > 100 µM | > 100 µM |  |  |  |  |  |  |  |  |  |  |
